Source: patent US7495027B2, “3-aryl-4-hydroxyfuranone compounds and the human and animal health use thereof” (Wyeth, priority 2003, dated 2009)

System: C. elegans
Assay: Efficacy against nematodes (C. elegans motility rating)
Set-up: key: 0: no effect; 7: reduced movement in 24 h; 8: dead in 24 h; 9: dead in 4 h
Settings: dose 200 μM, observations at 4 h and 24 h postimmersion
Experimental: Evaluation of the Efficacy of a 3-Aryl-4-Hydroxyfuranone Against Nematodes
In this evaluation, cultures of C. elegans are maintained on E. coli lawns on Nematode Growth Agar at 20° C. New cultures are established twice a week. Nematodes for testing are rinsed from plates using M9 Buffer. […] One μL of this solution is added to each well of a 96 well plate. A mixture of C. elegans in M9 Buffer (100 μL) is added to each well, such that approximately 50 worms of mixed stages (L1, L2, L3, L4 and adults) are present in each well at a final concentration of 100 ppm, 150 ppm or […] of test compound. Concentration of test compound may be varied by gradient dilution of the stock DMSO solution. Observations are made under a dissecting microscope at 4 h and 24 h postimmersion. A rating is based on the motility of the larvae and adults, using the rating system shown below.

Cc1ccc(C2=C(O)/C(=C/c3cccc(C(F)(F)F)c3Cl)OC2=O)cc1 [R=H; R1=4-CH3—C6H4; R2=2-Cl-3-CF3—C6H3] and CC(C)c1ccc(C2=C(O)/C(=C/c3cccc(C(F)(F)F)c3Cl)OC2=O)cc1 are the same in Rating: 9 for the first, 9 for the second.

Cc1cccc(C2=C(O)C(=Cc3cc(C(F)(F)F)ccc3Cl)OC2=O)c1C and Cc1cc(C)cc(C2=C(O)/C(=C/c3cc(C(F)(F)F)ccc3Cl)OC2=O)c1 are the same in Rating: 0 for the first, 0 for the second.

Compared with CC(C)(C)c1ccc(-c2ccc(C3=C(O)/C(=C/c4cccc(C(F)(F)F)c4)OC3=O)cc2)cc1, CCOc1ccc(-c2ccc(C3=C(O)/C(=C/c4cc(C(F)(F)F)ccc4F)OC3=O)cc2)cc1 is higher in Rating: 0 for the first, 9 for the second.

Cc1ccc(C2=C(O)/C(=C/c3cc(C(F)(F)F)ccc3Cl)OC2=O)cc1 [R=H; R1=4-CH3—C6H4; R2=2-Cl-5-CF3—C6H3] and CCCc1ccc(-c2ccc(C3=C(O)/C(=C/c4cc(C(F)(F)F)ccc4Cl)OC3=O)cc2)cc1 are the same in Rating: 0 for the first, 0 for the second.

With Cc1ccc(C2=C(O)C(=Cc3cccc(C(F)(F)F)c3Cl)OC2=O)cc1C the Rating was 9.

Same assay, conditions: dose 100 ppm, observations at 4 h and 24 h postimmersion

Compared with N#Cc1ccc(C=C2OC(=O)C(c3cccs3)=C2O)cc1 [R=H; R1=thiophen-2-yl; R2=4-CN—C6H4], O=C1O/C(=C\c2ccc(Cl)cc2)C(O)=C1c1cccs1 [R=H; R1=thiophen-2-yl; R2=4-Cl—C6H4] is higher in Rating: 0 for the first, 7 for the second.

O=C1OC(=Cc2ccc(-c3cccs3)cc2)C(O)=C1c1ccc(OC(F)(F)F)cc1 (mixture of isomers) and N#Cc1ccc(-c2ccc(C=C3OC(=O)C(c4ccc(OC(F)(F)F)cc4)=C3O)cc2)cc1 (mixture of isomers) are the same in Rating: 9 for the first, 9 for the second.

O=C1OC(=Cc2ccc(Oc3ccccc3)nc2)C(O)=C1c1ccc(OC(F)(F)F)cc1 (mixture of isomers) and O=C1OC(=Cc2ccc(-n3cccc3)cc2)C(O)=C1c1ccc(OC(F)(F)F)cc1 (mixture of isomers) are the same in Rating: 9 for the first, 9 for the second.

O=C1OC(=Cc2ccncc2Cl)C(O)=C1c1ccc(OC(F)(F)F)cc1 (mixture of isomers) and O=C1OC(=Cc2cccnc2Cl)C(O)=C1c1ccc(OC(F)(F)F)cc1 (mixture of isomers) are the same in Rating: 9 for the first, 9 for the second.

O=C1O/C(=C\c2ccc(OC(F)F)cc2)C(O)=C1c1ccc(Cl)s1 and O=C1O/C(=C\c2ccc(OC(F)(F)F)cc2)C(O)=C1c1ccc(Cl)s1 are the same in Rating: 9 for the first, 9 for the second.

N#Cc1ccc(C=C2OC(=O)C(c3ccc(C(F)(F)F)cc3)=C2O)cc1 (mixture of isomers) [R=H; R1=4-CF3—C6H4**; R2=4-CN—C6H4] and O=C1OC(=Cc2ccc(C(F)(F)F)cc2)C(O)=C1c1ccc(C(F)(F)F)cc1 (mixture of isomers) [R=H; R1=4-CF3—C6H4**; R2=4-CF3—C6H4] are the same in Rating: 9 for the first, 9 for the second.

N#Cc1ccc(C2=C(O)C(=Cc3ccc(Cl)c(Cl)c3)OC2=O)cc1 (mixture of isomers) [R=H; R1=4-CN—C6H4**; R2=3,4-diCl—C6H4] and O=C1OC(=Cc2ccc(C(F)(F)F)c(F)c2)C(O)=C1c1ccc(Cl)cc1 (mixture of isomers) [R=H; R1=4-Cl—C6H4**; R2=3-F-4-CF3—C6H4] are the same in Rating: 9 for the first, 9 for the second.

O=C1OC(=Cc2ccc(Cl)s2)C(O)=C1c1ccc(Cl)s1 and O=C1O/C(=C\c2ccc(F)c(F)c2)C(O)=C1c1ccc(Cl)s1 are the same in Rating: 9 for the first, 9 for the second.

Going from O=C1OC(=Cc2ccc(OC(F)(F)C(F)F)cc2)C(O)=C1c1ccc(OC(F)(F)F)cc1 (mixture of isomers) to O=C1OC(=Cc2ccc(OCC3CC3)cc2)C(O)=C1c1ccc(OC(F)(F)F)cc1 (mixture of isomers), the Rating falls from 9 to 0.

First: O=C1OC(=Cc2ccc(C(F)(F)F)cc2)C(O)=C1c1cccs1 [R=H; R1=thiophen-2-yl; R2=4-CF3—C6H4]
Second: O=C1O/C(=C\c2ccc(F)c(C(F)(F)F)c2)C(O)=C1c1ccc(Cl)s1
The Rating of the first is lower: 7 for the first, 9 for the second.

O=C1OC(=Cc2cnccc2-c2ccc(Cl)s2)C(O)=C1c1ccc(OC(F)(F)F)cc1 (mixture of isomers) and O=C1OC(=Cc2ccc(-c3ccccn3)s2)C(O)=C1c1ccc(OC(F)(F)F)cc1 (mixture of isomers) are the same in Rating: 9 for the first, 9 for the second.

Cc1nn(C)c(Cl)c1C=C1OC(=O)C(c2ccc(OC(F)(F)F)cc2)=C1O (mixture of isomers) and COc1ccc(-n2ncc(C=C3OC(=O)C(c4ccc(OC(F)(F)F)cc4)=C3O)c2C)cc1 (mixture of isomers) are the same in Rating: 0 for the first, 0 for the second.

Compared with O=C1O/C(=C\c2ccc(OCC3CC3)cc2)C(O)=C1c1ccc(Cl)s1, O=C1OC(=Cc2ccc(N3CCOCC3)nc2)C(O)=C1c1ccc(OC(F)(F)F)cc1 (mixture of isomers) is lower in Rating: 9 for the first, 0 for the second.

Molecule O=C1OC(=Cc2cc(F)cc(C(F)(F)F)c2)C(O)=C1c1ccc(OC(F)(F)F)cc1 (mixture of isomers) [R=H; R1=4-OCF3—C6H4**; R2=3-F-5-CF3—C6H3] has a Rating of 9.

Same assay, conditions: dose 150 ppm, observations at 4 h and 24 h postimmersion

Going from O=C1O/C(=C\c2cccc3ccccc23)C(O)=C1c1ccc(C(F)(F)F)cc1 [R=H; R1=4-CF3—C6H4; R2=1-naphthyl] to CN(C)c1ccc(/C=C2\OC(=O)C(c3ccc(C(F)(F)F)cc3)=C2O)c2ccccc12, the Rating falls from 9 to 0.

O=C1OC(=Cc2cccc3ccccc23)C(O)=C1c1cccc(CO)c1 [R=H; R1=3-CH2OH—C6H4; R2=1-naphthyl] and O=Cc1cccc(C2=C(O)/C(=C/c3cccc4ccccc34)OC2=O)c1 [R=H; R1=3-CHO—C6H4; R2=1-naphthyl] are the same in Rating: 0 for the first, 0 for the second.

CN(C)c1ccc(C=C2OC(=O)C(c3cc(Cl)cc(Cl)c3)=C2O)c2ccccc12 and O=C1OC(=Cc2ccccc2OCc2ccccc2)C(O)=C1c1cc(Cl)cc(Cl)c1 are the same in Rating: 0 for the first, 0 for the second.

COC1=C(c2ccccc2)C(=O)O/C1=C\c1cccc(C(F)(F)F)c1 [R=CH3; R1=C6H5; R2=3-CF3—C6H4] and COC1=C(c2cccc(C(F)(F)F)c2)C(=O)O/C1=C\c1ccccc1 [R=CH3; R1=3-CF3—C6H4; R2=C6H5] are the same in Rating: 0 for the first, 0 for the second.

Compared with CCOC(=O)N1CCN(c2ccc(/C=C3\OC(=O)C(c4cccc(Cl)c4)=C3O)cc2F)CC1, CCOC(=O)N1CCN(c2ccc(C=C3OC(=O)C(c4cc(Cl)cc(Cl)c4)=C3O)cc2F)CC1 is lower in Rating: 7 for the first, 0 for the second.

COc1ccc(C2=C(O)/C(=C/c3ccc4ccccc4c3)OC2=O)cc1 [R=H; R1=4-OCH3—C6H4; R2=2-naphthyl] and COc1ccc(C2=C(O)/C(=C/c3ccc(Cl)cc3)OC2=O)cc1 [R=H; R1=4-OCH3—C6H4; R2=4-Cl—C6H4] are the same in Rating: 0 for the first, 0 for the second.

O=C1O/C(=C\c2cccc3ccccc23)C(O)=C1c1cccc(C=NO)c1 [R=H; R1=3-(C═NOH)—C6H4; R2=1-naphthyl] and O=C1O/C(=C\c2cccc3ccccc23)C(O)=C1c1cccc2ccccc12 [R=H; R1=1-naphthyl; R2=1-naphthyl] are the same in Rating: 0 for the first, 0 for the second.

CC(C)(C)c1ccc(-c2ccc(C3=C(O)/C(=C/c4ccc(-c5ccccc5)cc4)OC3=O)cc2)cc1 and Cc1ccc(C2=C(O)/C(=C/c3ccc(-c4ccc(C)cc4)cc3)OC2=O)cc1 are the same in Rating: 0 for the first, 0 for the second.

Compared with O=C1O/C(=C\c2ccccc2)C(O)=C1c1cccc(C(F)(F)F)c1 [R=H; R1=3-CF3—C6H4; R2=C6H5], O=C1O/C(=C\c2cccc(C(F)(F)F)c2)C(O)=C1c1ccccc1 [R=H; R1=C6H5; R2=3-CF3—C6H4] is lower in Rating: 8 for the first, 0 for the second.

First: COc1ccccc1-c1ccc(C=C2OC(=O)C(c3cccc(Cl)c3)=C2O)cc1C
Second: COc1cc(/C=C2\OC(=O)C(c3cccc(Cl)c3)=C2O)ccc1-c1ccccc1C(F)(F)F
The Rating of the first is lower: 7 for the first, 9 for the second.

First: COC1=C(c2cccc(C(F)(F)F)c2)C(=O)O/C1=C\c1cccc(C(F)(F)F)c1 [R=CH3; R1=3-CF3—C6H4; R2=3-CF3—C6H4]
Second: O=C1O/C(=C\c2cccc(C(F)(F)F)c2)C(O)=C1c1ccc2ccccc2c1 [R=H; R1=2-naphthyl; R2=3-CF3—C6H4]
The Rating of the first is lower: 0 for the first, 9 for the second.

N#Cc1ccc(C=C2OC(=O)C(c3ccc(Cl)cc3)=C2O)cc1 (mixture of isomers) [R=H; R1=4-Cl—C6H4**; R2=4-CN—C6H4] and N#Cc1ccc(C2=C(O)C(=Cc3ccc(-c4ccc(Cl)cc4)cc3)OC2=O)cc1 are the same in Rating: 9 for the first, 9 for the second.

COC1=C(c2ccc(Cl)cc2)C(=O)O/C1=C\c1ccccc1 [R=CH3; R1=4-Cl—C6H4; R2=C6H5] and COC1=C(c2ccc(OC)cc2)C(=O)O/C1=C\c1ccccc1 [R=CH3; R1=4-OCH3—C6H4; R2=C6H5] are the same in Rating: 0 for the first, 0 for the second.

First: O=C1O/C(=C\c2ccc(-c3ccccc3F)cc2)C(O)=C1c1ccccc1F [R=H; R1=2-F—C6H4; R2=4-(2′-F-biphenyl)]
Second: O=C1O/C(=C\c2ccc(-c3ccccc3CO)cc2)C(O)=C1c1ccccc1CO
The Rating of the first is higher: 8 for the first, 0 for the second.

O=C1O/C(=C\c2cccc(C(F)(F)F)c2)C(O)=C1c1cccc2ccccc12 [R=H; R1=1-naphthyl; R2=3-CF3—C6H4] and O=C1O/C(=C\c2ccc(Cl)cc2)C(O)=C1c1cccc2ccccc12 [R=H; R1=1-naphthyl; R2=4-Cl—C6H4] are the same in Rating: 0 for the first, 0 for the second.

N#Cc1cccc(C2=C(O)/C(=C/c3ccc(-c4cccc(C#N)c4)cc3)OC2=O)c1 [R=H; R1=3-CN—C6H4; R2=4-(3′-CN-biphenyl)] and O=C1O/C(=C\c2ccc3ccccc3c2)C(O)=C1c1ccc(-c2ccccc2)cc1 [R=H; R1=4-biphenyl; R2=2-naphthyl] are the same in Rating: 0 for the first, 0 for the second.

COc1cc(/C=C2\OC(=O)C(c3cc(Cl)cc(Cl)c3)=C2O)ccc1-c1ccccc1C(F)(F)F and O=C1O/C(=C\c2ccc(N3CCOCC3)c3ccccc23)C(O)=C1c1cccc(Cl)c1 are the same in Rating: 0 for the first, 0 for the second.
